This is an account of results in patent publication US8404690B2, “Piperazine-2-carboxamide derivatives” (Merck Serono SA, priority 2003, dated 2013).

pEC50, pIC50, pKi: −log10 of the molar value.

Broadly, the pKi is the negative decadic logarithm of the Ki, by convention in mol/L. The term pIC50 denotes the negative decadic logarithm of the IC50, by convention in mol/L. A low value points to a large IC50. The term pEC50 denotes −log10 of the EC50, conventionally taken in molar units. In general, melting point refers to the temperature of the solid-liquid transition.

The target of series [1] is T1, human Prostaglandin F2α receptor (Homo sapiens, UniProt P43088). The series is described as follows: In vitro competition binding assay with Scintillation Proximity Assay (SPA). Further details: Human Prostaglandin F2α receptor (full-length cDNA) was subcloned into the pCEP4 (Invitrogen) vector; expressed in transfected cells; host or cells: HEK 293 EBNA cells (membrane preparation). As to conditions: Prostaglandin F2α as radioligand, membranes of HEK 293 EBNA cells, read-out: Binding affinity for human Prostaglandin F2α receptor Ki. From the text:
In vitro competition binding assay with Scintillating Proximity Assay (SPA) (see Pharmaceutical Manufacturing International, 1992, p. 49-53 by Cook, N. D. et al)
This assay allows to determine the binding affinity of the test compounds of formula (II) for the human Prostaglandin F2α receptor
Human Prostaglandin F2α receptor (full-length cDNA) was subcloned into the pCEP4 (Invitrogen) vector and transfected together with the hygromycin resistance gene into HEK 293 EBNA cells by Calcium-phosphate co-precipitation method. Antibiotic resistant cells were grown under constant selection pressure in DMEM/F-12 medium supplemented with 2% fetal calf serum, 4 mM L-Glutamine and 8 ml/l Insulin-Transferrin-Selenium-mix (all Invitrogen) and 300 μg/ml hygromycin at 37° C. in a humidified atmosphere of 5% CO2 in air. At 48 h before harvesting, receptor expression was enhanced by adding 5 mM of Na-butyrate. Cells were washed twice with phosphate buffer saline, harvested and pelleted by centrifugation.
Cell pellet was lysed by Dounce homogenisation in 250 mM sucrose, 25 mM Tris-HCl pH 7.5, 10 mM MgCl2, 1 mM EDTA containing proteases inhibitors according to the manufacturer (Boehringer Mannheim) at 4° C. The lysate was centrifuged at 1000 g, 4° C. for 10 min and the supernatant was centrifuged at 160000 g, 4° C. for 60 min. […]
In vitro competition binding with Scintillation proximity assay (SPA) was performed in Corning NBS 96 wells plates. Briefly, 100 μl of binding buffer containing 15 to 30 μg of purified membranes, 4 mg/ml of wheat-germ agglutinin (WGA) SPA beads and 1 to 2 nM of ^3H PGF2-alpha (determined by Scatchard analysis) in 1% DMSO was incubated for 2 hours at room temperature. Non-specific binding was determined in the presence of 1 μM of non-radioactive Prostaglandin F2α. […] The radioactivity was counted on a Microbeta plate counter and the binding data were analysed using the iterative, non-linear, curve-fitting program, “Prism” (GraphPad Software, Inc).
In general terms: Scintillation proximity formats need no separation of bound from free tracer.

Series [2] addresses T1, human Prostaglandin F2α receptor. Description: In vitro functional assay 2: inhibition of Prostaglandin F2α induced Ca2+-mobilization in HEK EBNA cells (FLIPR). The series is classed as cell-based. On the set-up: expressed in transfected cells; host or cells: HEK EBNA cells. To be noted: HEK EBNA cells expressing the human Prostaglandin F2α receptor. As for the experimental part: 2) In Vitro Functional Assay 2: Inhibition of Prostaglandin F2α Induced Ca^2+-Mobilization in HEK/EBNA-Cell Expressing the Prostaglandin F2α Receptor, as Measured by FLIPR® (Fluorimetric Imaging Plate Reader).
HEK EBNA cells were seeded at 60000 cells/well in a Poly-L-Lysine precoated black/white bottom 96 well plate. 24 hours later cells were loaded with […] Fluo-4 in DMEM-F12 without fetal calf serum for 1-2 hours at 37° C. For Prostaglandin F2α dose response or agonist activity measurement of compounds—after a wash with FLIPR buffer (10 mM Hepes, 145 mM NaCl, 5 mM KCl, 1 mM MgCl2, 10 mM glucose, pH 7.4)—cells were stimulated with increasing concentration of Prostaglandin F2α or test compounds of formulae (I), (II) and (III).
Calcium mobilisation was then measured on the FLIPR for 4 min. For IC50 determination of the molecules, increasing concentrations of test compounds were added to the cells 30 min prior to the washing step. After the wash with FLIPR buffer, increasing concentrations of test compounds were added to the cells in FLIPR buffer and calcium mobilisation was measured for 1 min. Then the cells were stimulated with a concentration of 2 times the EC50 of Prostaglandin F2α and calcium mobilisation was measured for 4 min.

Series [3] addresses T2, human Prostaglandin F2α receptor (hFP) (Homo sapiens, UniProt P43088).
T2 construct: expressed in transfected cells; host or cells: 293-EBNA cells
The series is described as follows: In vitro functional assay 1: inhibition of Prostaglandin F2α induced IP3 synthesis in HEK/EBNA cells. The format is cell-based. As to conditions: tested on human Prostaglandin F2α; 30 nM PGF2α stimulation; read-out: EC50 value, antagonism of Prostaglandin F2α-induced IP3-synthesis. From the text:
1) In Vitro Functional Assay 1: Inhibition of Prostaglandin F2α Induced IP3 (Inositol Triphosphate) Synthesis in HEK/EBNA-Cells Expressing the Prostaglandin F2α Receptor
The interaction of Prostaglandin F2α with its receptor leads to IP3 synthesis, a second messenger for Ca^2+ release from sarcoplasmatic reticulum, involved in the process triggering uterine contractions. The present assay described hereinafter can be used to show the inhibition of the Prostaglandin F2α/Prostaglandin F2α receptor mediated IP3 synthesis by test compounds of formula (I).
293-EBNA cells and pCEP4 vector were purchased from Invitrogen; Fetal Bovine Serum from Cansera; Hygromycin B from Roche Molecular Biochemicals; DMEM-F12 medium, L-Glutamine from Life Technologies Inc.; [^3H] Inositol from Perkin Elmer Life Sciences; Prostaglandin F2α (PGF2α) from Sigma, AG1-X8 chromatography columns from BioRad, 96 well black/white plates from Corning Inc. […]
In the course of the three above mentioned experiments, the reaction was stopped by addition of 1 ml of stop solution (2.4% perchloric acid) for 10 min. […] The IP3 to be quantified were eluted with 3 ml elution buffer (1M ammonium formate, 0.1 M formic acid) and radioactivity was counted on a Beckman LS6000TA scintillation counter to measure the amount of phosphorylated [^3H] inositol.

For series [4], the system named is Spontaneous uterine contractions in late-term pregnant rats. Description: In vivo assay: reduction of spontaneous uterine contractions in late-term pregnant rats. On the set-up: species or system rat. To be noted: i.v. route (infusion over 10 minutes), dose of 3 mg/kg/min, anesthetised late-term pregnant Sprague Dawley rats, AUC of intra-luminal uterine pressure vs basal. From the text:
3) In Vivo Assay: Reduction of Uterine Contractile Activity in Rats
Spontaneous Uterine Contractions in Late-Term Pregnant Rats:
Late-term pregnant (19-21 days of gestation) Sprague Dawley female rats (Charles River, Calco, Italy) weighing 350-400 g were anesthetised with urethane (1.05 g/kg, i.p.) and placed on a homeothermic operating table. The trachea was isolated and cannulated with a suitable polyethylene (PE) tubing. A midline incision at the hypogastrium level was made, one pregnant uterine horn exposed and its tubal end closed (near the ovary) by a ligature with surgical silk. […]
The spontaneous contractile response of the uterus was quantified by evaluating the area under the curve (AUC) of the changes in the intra-luminal uterine pressure over time (by Chart V4.04 for Windows software, PowerLab AD Instruments, Castle Hill, Australia). The effect of the test compound on the spontaneous uterine contraction was evaluated as the percent variation of the AUC calculated in a 10-min interval following the administration of each dose of test compound as compared to the AUC in a 10-min interval before the administration of the first dose of test compound (basal value). When possible, a dose-response curve (of peak effect) was plotted and the relative ED50 value calculated (by S-Plus 2000 v. 4.6 statistical software, Mathsoft, Inc. Seattle, Wash., USA).

T1 sequence (P43088 whole entry): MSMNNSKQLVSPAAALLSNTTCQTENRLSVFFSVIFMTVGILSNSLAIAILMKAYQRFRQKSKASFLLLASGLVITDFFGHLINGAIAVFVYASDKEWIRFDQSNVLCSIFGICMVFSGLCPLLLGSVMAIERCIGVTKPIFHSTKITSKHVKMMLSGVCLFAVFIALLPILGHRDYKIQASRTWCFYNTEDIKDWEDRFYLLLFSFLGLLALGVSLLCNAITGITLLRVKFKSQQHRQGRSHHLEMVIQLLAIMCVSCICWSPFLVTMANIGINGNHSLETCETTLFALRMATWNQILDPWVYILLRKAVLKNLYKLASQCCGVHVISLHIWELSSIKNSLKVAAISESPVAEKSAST
T2 sequence (P43088 whole entry): as above

Regarding `C=CCNC(=O)[C@@H]1CN(S(=O)(=O)c2ccc(C(C)(C)C)cc2)CCN1S(=O)(=O)c1cccc2cccnc12` [drawing 66, (2S)-4-[(4-tert-butylphenyl)-sulfonyl]-N-prop-2-enyl-1-(quinolin-8-yl-sulfonyl)piperazine-2-carboxamide], in series [1], the pKi was 6.90.

Take `CN(CC(O)c1ccccc1)C(=O)[C@H]1CN(C(=O)Nc2ccc(Oc3ccccc3)cc2)CCN1S(=O)(=O)c1ccccc1` (stereo partly drawn) [Example 16, (3R)—N˜3˜-(2-hydroxy-2-phenylethyl)-N˜3˜-methyl-N˜1˜-(4-phenoxy-phenyl)-4-(phenylsulfonyl)piperazine-1,3-dicarboxamide]: the pKi in series [1] was 5.94. The same compound gave a negative logarithm of the IC50 (pIC50) in series [2] of 5.32.

For the compound `C=CCNC(=O)[C@@H]1CN(S(=O)(=O)c2ccc(C(C)(C)C)cc2)CCN1S(=O)(=O)c1cccc2cccnc12` [Example 8, (2S)-4-[(4-tert-butylphenyl)sulfonyl]-N-Drop-2-enyl-1-(quinolin-8-ylsulfonyl)piperazine-2-carboxamide], in series [3], the pEC50 was 7.62.

Compound `C=CCNC(=O)[C@H]1CN(S(=O)(=O)c2ccc(C(C)(C)C)cc2)CCN1S(=O)(=O)c1cccc2cccnc12.Cl` registered a melting point of 126 to 129 °C.

Take “(3S)-4-(3-chlorobenzoyl)-N˜1˜-(3,4-dichlorophenyl)-N˜3˜-[(1S)-2,3-dihydro-1H-inden-1-yl]piperazine-1,3-dicarboxamide [Example 21]”: the pKi in series [1] was 6.09. Also, in series [2], the pIC50 is 6.31.

As to `C=CCNC(=O)c1cc(C(C)(C)C)ccc1S(=O)(=O)c1cccc2cccnc12` [[5-(tert-butyl)-2-(8-quinolylsulfonyl)phenyl]-N-prop-2-enylcarboxamide], in series [4], the “inhibition of uterine contractions” value is reported as 56.1%.
